Where “and” joins values, the source holds several entries; their conditions need not be identical. Equal entries are not always repeated. Entries after “also recorded” stand apart in the source; their conditions may differ. Marks after values point to notes of the source that are not given here.
How the values were obtained:
[1] = test system: bFGF-induced angiogenesis in rat corneas; assay: Corneal angiogenesis, implanted hydron pellets; format: in vivo; settings: pellets with bFGF 100 ng, alone or plus ST104P 500 ng, day 7
Protocol: FIG. 8. […] The asterisk represents the place of hydron pellet implantation. (B) The neovascularization in rat corneas after implantation bFGF hydron pellets or pellets containing bFGF and ST104P. The length (panel a) and area (panel b) of neovascularized vessels in rat corneas were measured after implantation for 3-7 days. Data are means±SEM (n=8 per group). *P<0.01.
(§1) All rats were handled in accordance with the Association for Research in Vision and Ophthalmology Resolution on the Use of Animals in Research. Male Sprague-Dawley rats (300-350 g, Animal Center, National Science Counsel, Taipei, Taiwan) were used in this study. All surgical procedures were performed using sterile techniques. The rats were placed under anesthesia with 3% isoflurane in an O2/room air mixture (1:1). Additional topical anesthesia (0.4% benoxinate hydrochloride, Ciba Vision Ltd., Hettlingen, Switzerland) was applied to the corneal surface. The eyes were exposed by grasping the temporal limboconjunctiva using a jeweler's forceps and the central-peripheral corneal intrastromal lamellar pocket (0.6×1.5×1 mm for depth×length×width) was dissected with a surgical blade (Paragon no. 11; Maersk Medical LTD, Sheffield, England). The pockets were extended 1.5 to 2 mm away from the limbus. The pellet was grasped by smooth forceps from the refrigerator (−20° C.) and immediately implanted into the corneal stromal pocket in each eye. Topical antibiotic ointment (0.3% gentamycin; Alcon Cusi, Spain) was applied to the corneal surface to reduce irritation and prevent infection.
Implanting Hydron Pellets
(§2) Biomicroscopic Examination
(§3) Examinations were made with a dissecting microscope and results were photographed on days 3, 5 and 7. Under anesthesia, the maximum vessel length and width of the neovascularization in rat eyes were measured and calibrated using a microscale (Nikon, Tokyo, Japan). The area of neovascularization of the cornea was determined from the dimensions of the triangular growth pattern of the vessels. Photographs of the corneal angiogenesis assay were obtained and digitized in a 640×480 pixel matrix, using a digital camera CoolPix 995 (Nikon, Tokyo, Japan). The operator was blinded to experimental design. Areas containing blood vessels were traced on the computer monitor and calculated with image analysis software (Scion Image 4.02; Scion, Maryland, USA) and reported in square millimeters with determinations. The biomicroscopic assessment was conducted by two independent observers.
(§4) To analyze the differences between groups, Mann-Whitney U test analysis with two-tailed probability was used and a P value of less than 0.05 was considered significant. Results are presented as means±SEM (standard error of the mean). For each experiment, surgery was performed on all animals in a standardized fashion, and animals were randomized to the different treatment and control groups.

different types of cells = assay: Cell proliferation assay, different types of cells; format: cell-based; settings: dose-dependent, 10-500 μg/ml, 48 h
Description: (§5) FIG. 1. […] The pictures were taken at 400× magnification. […] Each data represent mean±SD of quadruplicate experiments. Asterisks indicated statistic significance versus control (P<0.001).

[2] = test system: bFGF-induced angiogenesis in rat corneas; assay: Corneal angiogenesis, implanted hydron pellets; format: in vivo; settings: for Area (mm^2) of neovascularization / Length (mm) of new vessels: day 7
[3] = test system: BAEC, HUVEC, EA.hy926 cells, 3T3 cells, GH3 cells, C6 cells, HepG2 cells, SK-Hep-1 cells, MDCK cells; assay: Morphological analysis of endothelial and non-endothelial cells; format: cell-based; settings: all types of cells tested; data not shown
Description: as §5

Lewis lung carcinoma = assay: Treatment of Lewis lung carcinoma in mice; format: in vivo
Protocol: FIG. 6. […] The subcutaneous dorsa of mice were implanted with Lewis lung carcinomas. […] Each point represents mean±SEM for ten mice.
FIG. 7. […] The subcutaneous dorsa of mice were implanted with Lewis lung carcinomas. […] Each point represents mean±SEM for ten mice.
Animal study was carried out in the animal facility of Kaohsiung Veterans General Hospital in accordance with institutional guidelines. Male C57BL/6J mice (6- to 8-week-old; Animal Center of National Cheng Kung University, Taiwan) were used. Mice were acclimated and caged in groups of four or less. All mice were fed with a diet of animal chow and water ad libitum. Animals were anesthetized in a methoxyflurane chamber prior to all procedures and were observed until fully recovered. Animals were sacrificed by a lethal dose of methoxyflurane.
Treatment of Lewis Lung Carcinoma
C57BL/6J mice were implanted with Lewis lung carcinomas cells using the techniques described previously (O'Reilly et al., Cell 88, 277-285, 1997). Briefly, the LL2 Lewis lung carcinoma cells were resuspended in PBS at the concentration of 2.5×10^6 cells per ml and injected into C57B16/J mice (n=20) with 0.1 ml of the cell suspension to induce tumor. Tumors were measured with a dial-caliper and volumes were determined using the formula width^2×length×0.52. […] In addition, the survival rate of mice in different groups was recorded and analyzed by Kaplan-Mier Survival analysis.

[4] = test system: bFGF-induced corneal angiogenesis; assay: Corneal angiogenesis, topical application of eye drops; format: in vivo
Protocol: FIG. 9. […] (A) Representative photographs of basic fibroblast growth factor (bFGF)-implanted corneas after topical application of control (phosphate buffered saline, PBS) eye drop (left panel) and ST104P-containing eye drop (50 μg/ml, middle panel; 100 μg/ml, right panel) for 7 days. The asterisk represents the place of hydron pellet implantation. […] Data represent mean±SEM (n=8 per group).
FIG. 10. Histological analysis of basic fibroblast growth factor (bFGF)-implanted rat cornea after ST104P eye drop treatment. After eye drop treatment for 7 days, the bFGF-implanted rat corneas were harvested and stained with hematoxylin and eosin (200×). […] Neocapillaries (arrowheads) are prominent in the corneal stroma.
as §1
Topical Application of ST104P
as §2, §3
After treatment, the rat corneas were dissected and fixed in […]. The […]-embedded tissues were sectioned in 5-μm slices, mounted on poly-L-lysine-coated slides and subjected to hematoxylin and eosin staining.
as §4

Water solubility = format: physicochemical
EA.hy926 = settings: EA.hy926, incubation 6 h, bFGF 100 ng/ml
Protocol: (§6) FIG. 2. […] After trypsinization, endothelial cells were applied to top wells in Boyden chamber to initiated migration toward chemoattractant bFGF (100 ng/ml) in the bottom wells. The migrated cells on filter were stained and counted. Each point represents mean±SEM of triplicate experiments.
(§7) The compartments were separated by a polycarbonate filter (8-μm pore size; Nucleopore, Costar, Cambridge, Mass.) coated with 0.005% gelatin to allow cell adhesion. After incubation for 2-4 h in a humidified 5% CO2 atmosphere at 37° C., cells on the upper side of the filter were removed, and those that had migrated to the lower side were fixed in absolute ethanol, stained with 10% Giemsa solution (Merck, Germany), and counted as a mean±SD per filter under five different high power fields.

BAEC [5] = settings: incubation 6 h, bFGF 100 ng/ml
Protocol: as §6, §7

[6] = test system: neovascularization in chicken embryos (CAM); assay: Chorioallantoic membrane (CAM) assay
Protocol: The angiogenesis profiles on CAMs were recorded under dissection microscope.
Chorioallantoic Membrane (CAM) Assay
Briefly, fertilized White Leghorn chicken eggs were purchased from Taiwan Provincial Research Institute for Animal Health (Hsin-Chu, Taiwan) and incubated at 37° C. with 60% humidity. On day 3, a square window was opened in the shell, and 2 to 3 ml of albumen was removed to allow detachment of the developing CAM. The window was sealed with a glass, and the eggs were returned to the incubator. […] The CAMs were examined daily until day 10-12, when the angiogenic response peaks, and photographed in ovo with a stereomicroscope equipped with Zeiss MC63 camera system (Zeiss, Oberkochen, Germany). The experiments were carried out using 10 eggs per group.

[7] = test system: secretion of MMP-9 by endothelial cells; assay: MMPs gelatin zymography of conditioned media of endothelial cells; format: cell-based; settings: endothelial cells (BAEC, EA.hy926), even at dose as low as 10 μg/ml, 24 h
Protocol: (§8) Matrix Metalloproteinases (MMPs) Zymography
(§9) Secretion of MMPs by endothelial cells was assessed by 0.1% gelatin-SDS-PAGE zymography. Briefly, endothelial cells near 80% confluence were washed twice with serum-free media and treated with various doses of vasostatin for 24-48 h. Conditioned media were collected and assayed for protein concentration by Bradford assay. Aliquots of conditioned media were subjected to separation with 10% SDS-PAGE containing 0.1% type A gelatin (Sigma; St. Louis, Mo.). After electrophoresis, gel was washed twice with 2.5% Triton X-100, incubated in buffer containing 40 mM Tris-HCl, pH […], 0.01% sodium azide at 37° C. for 12-24 h, stained with 0.25% Coomassie Blue R-250 in 50% methanol and 10% acetic acid for 1 h, and destained with 10% acetic acid, 20% methanol. The gelatinolytic regions by MMPs were visualized as white bands in blue background.

[8] = test system: secretion of MMP-2 by endothelial cells; assay: as above; format: cell-based; settings: endothelial cells (BAEC, EA.hy926), even at dose as low as 10 μg/ml, 24 h
Protocol: as §8, §9

EA.hy926 cells = assay: Tube formation assay in Matrigel; format: cell-based, Human; settings: ST104P 20-100 μg/ml
BAEC [9] = assay: Tube formation assay in Matrigel; format: cell-based, Bovine; settings: ST104P 20-100 μg/ml
Protocol: FIG. 3. ST104P abolished the tube formation of endothelial cells. […] Endothelial cells were applied to Matrigel-coated plate in the absence or presence of ST104P. After 8 h, the tubular structures of BAEC cells were monitored and recorded under light microscopy. The pictures were taken at 400× magnification.
Matrigel (Becton Dickinson; Bedford, Mass.) was diluted with cold serum-free medium to 10 mg/ml. Two hundred μl of the diluted solution were added to each well in 24-well plate and allowed to form a gel at 37° C. for 30 min. […] Two hundred μl of the cell suspension (3×10^4 cells) were then subsequently added to each well and incubated for 6-8 h at 37° C. in 5% CO2. Under these conditions endothelial cells form delicate networks of tubes that are detectable within 2-3 h and are fully developed after 8-12 h.

[10] = Tolerability in animals via various routes (data not shown); format: in vivo; settings: oral or intravenous, intraperitoneal, and intratumor injection
[11] = ST104P 500 ng pellet without bFGF
[12] = ST104P 1000 ng pellet without bFGF

With “bFGF: Recombinant basic fibroblast growth factor, used as chemoattractant and as inducer of corneal angiogenesis in hydron pellets [reference compound]” the “Area (mm^2) of neovascularization” value [1] was 1.42±0.28 mm^2 and the “Length (mm) of new vessels” value [1] was 1.36±0.4 mm and 1.36 ± 0.40 mm.

For “tetrameric cyclic compound of 4,5-dihydroxynaphthalene-2, 7, disulfonic acid linked by methylene bridges [ST104P]”, the “proliferation in different types of cells” value (different types of cells) was “moderately inhibited the proliferation”, the “Area (mm^2) of neovascularization” value [2, 11] was 0 mm^2 and the “Length (mm) of new vessels” value [2, 11] was 0 mm. For the same substance, the “Area (mm^2) of neovascularization” value [2, 12] was 0 mm^2, the “Length (mm) of new vessels” value [2, 12] was 0 mm and the “induction of neovascularization by pellets without bFGF” value ([2]; ST104P pellets alone in rat corneas) was “did not induce neovascularization”. For the same substance, the “Area (mm^2) of neovascularization” value ([1]; listed as bFGF + ST104P) was 0.12 ± 0.11* mm^2, the “Length (mm) of new vessels” value ([1]; listed as bFGF + ST104P) was 0.17 ± 0.06* mm and the “Area (mm^2) of neovascularization” value ([1]; listed as bFGF plus ST104P) was 0.12±0.11 mm^2. For the same substance, the “Length (mm) of new vessels” value ([1]; listed as bFGF plus ST104P) was 0.17±0.06 mm, the “cytotoxicity by morphological analysis” value [3] was “not very toxic” and the “weight loss or adverse effects in treated mice” value (Lewis lung carcinoma; ST104P 100 μg injection) was “no evident weight loss or adverse effects”. For the same substance, the “decrease of tumor size versus saline-treated group” value (Lewis lung carcinoma; ST104P 100 μg injection, four times) was ~40%, the average tumor size (Lewis lung carcinoma; ST104P 100 μg injection, four times, saline group 4876±670, P<0.05) was 2620±320 mm^3 and the “survival of tumor-bearing mice” value (Lewis lung carcinoma; ST104P 100 μg, versus vehicle, Kaplan-Meier) was “significantly enhanced the survival rates; also recorded: survived significantly longer”. For the same substance, the average vessel length ([4]; ST104P eye drop 100 μg/ml three times daily, day 7, PBS eye drop 1.36±0.4, P<0.01) was 0.39±0.15 mm, the neovascularized area ([4]; ST104P eye drop 100 μg/ml three times daily, day 7, PBS eye drop 1.42±0.28, P<0.01) was 0.28±0.19 mm^2 and the “effect on bFGF-induced cornea angiogenesis” value ([4]; ST104P eye drop 10-20 μg/ml) was “did not elicit inhibitory effect”. For the same substance, the “neovascularization by histological analysis” value ([4]; ST104P eye drops 50 and 100 μg/ml, 7 days, hematoxylin and eosin) was “no significant neovascularization”, the “toxicity to the cornea / other eye cells by histological analysis” value ([4]; ST104P eye drops, 7 days) was “appears normal histologically without apparent adverse effects; also recorded: without overt cytotoxicity” and the water solubility (Water solubility) was “excellent water solubility”. The “IC50, migration toward chemoattractant bFGF” value (EA.hy926) was 100 µg/mL, the “IC50, migration toward chemoattractant bFGF” value (BAEC [5]) was 100 µg/mL and the “inhibition of angiogenesis in CAM” value ([6]; 50 μg per CAM, 8-day old chick embryos) was 50%. For the same substance, the “mortality of chick embryos” value ([6]; 200 μg per CAM, 9 out of 10 died) was 90%, the “secretion of MMP-9” value [7] was “potently inhibited” and the “secretion of MMP-2” value [8] was “potently inhibited”. The “vessel-like (tube) structure in Matrigel” value (EA.hy926 cells) was “effectively abolished”, the “vessel-like (tube) structure in Matrigel” value (BAEC [9]) was “effectively abolished” and the tolerability in animals [10] was “well tolerated”.

Source: patent publication US7709538B2 (Sagittarius Life Science Corp., priority 2004, dated 2010)
